ChEMBL document CHEMBL1201862, “PubChem BioAssay data set” (2004)
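96-well plates; 48 h exposure; 5 concentrations. Endpoints by linear interpolation between flanking doses. Not reached: highest tested concentration assigned. Abbreviation: GI50, concentration required for 50% inhibition of growth.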 The source made the active and inactive calls. Cut-off read from the data, not from the text of the source: active = GI50 up to about 1.1 µM and inactive = higher.

Legend:
Experiment in all cases: NCI anticancer screen, dose series, 48 h
A549 = system: A549
ACHN = system: ACHN
COLO 205 = system: COLO 205
EKVX = system: EKVX
KM12 = system: KM12
NCI-H226 = system: NCI-H226
SF-268 = system: SF-268
SK-MEL-2 = system: SK-MEL-2
SNB-75 = system: SNB-75
UACC-257 = system: UACC-257
A498 = system: A498
HCT-15 = system: HCT-15
MOLT-4 = system: MOLT-4
SK-OV-3 = system: SK-OV-3
SN12C = system: SN12C
SR = system: SR
OVCAR-3 = system: OVCAR-3

| SMILES | GI50 (A549) | GI50 (ACHN) | GI50 (COLO 205) | GI50 (EKVX) | GI50 (KM12) | GI50 (NCI-H226) | GI50 (SF-268) | GI50 (SK-MEL-2) | GI50 (SNB-75) | GI50 (UACC-257) | GI50 (A498) | GI50 (HCT-15) [µM] | GI50 (MOLT-4) | GI50 (SK-OV-3) | GI50 (SN12C) | GI50 (SR) | GI50 (OVCAR-3) |
| --- | --- | --- | --- | --- | --- | --- | --- | --- | --- | --- | --- | --- | --- | --- | --- | --- | --- |
| CCCCCCCCCCC/C(=N/O)c1ccc(O)c2ncccc12 | 5.69 µM (inactive) | 2.21 µM (inactive) | 45.9 µM (inactive) | 3.52 µM (inactive) | 6.41 µM (inactive) | 3.22 µM (inactive) | 2.9 µM (inactive) | 2.4 µM (inactive) | 2.52 µM (inactive) | 3.25 µM (inactive) |  |  |  |  |  |  |  |
| COc1ccccc1NC(=O)C(=O)C(c1cnc2ccc([N+](=O)[O-])cc2n1)[N+](=O)[O-] (configuration not stated) | > 100 µM (inactive) | 87.3 µM (inactive) | 38.3 µM (inactive) | > 100 µM (inactive) | > 100 µM (inactive) | > 100 µM (inactive) | > 100 µM (inactive) | > 100 µM (inactive) | > 100 µM (inactive) | > 100 µM (inactive) | > 100 µM (inactive) | > 100 | 32.8 µM (inactive) | > 100 µM (inactive) | > 100 µM (inactive) | 45.6 µM (inactive) |  |
| Cc1cccc(C(C)C)c1NC(=O)CC1C(=O)Nc2ccccc2S1(=O)=O (configuration not stated) | 16.8 µM (inactive) | 22.9 µM (inactive) | 25.2 µM (inactive) | 16 µM (inactive) | 19.4 µM (inactive) | 18.7 µM (inactive) | 12.8 µM (inactive) | > 38.3 µM (inactive) | 21.5 µM (inactive) | 23.6 µM (inactive) | 11.7 µM (inactive) | 5.11 | 0.408 µM (active) | > 100 µM (inactive) | 23.2 µM (inactive) | 1.48 µM (inactive) | 12.2 µM (inactive) |
| O=C1Nc2ccc(Br)cc2/C1=N/Nc1ccc([N+](=O)[O-])cc1 | 19 µM (inactive) | 18.5 µM (inactive) | 27.2 µM (inactive) | 23.9 µM (inactive) | 24.6 µM (inactive) | 18 µM (inactive) | 17.5 µM (inactive) | 31 µM (inactive) | 19.3 µM (inactive) | 20.3 µM (inactive) | 20.7 µM (inactive) | 27.2 | 34.3 µM (inactive) | 19.5 µM (inactive) | 19.3 µM (inactive) | 22.8 µM (inactive) | 19.9 µM (inactive) |
| O=C(Cc1ccccc1)C(c1ccccc1)S(=O)(=O)c1ccccc1 (configuration not stated) | 59.4 µM (inactive) | > 100 µM (inactive) | > 100 µM (inactive) | > 100 µM (inactive) | > 100 µM (inactive) | > 100 µM (inactive) | > 100 µM (inactive) | > 100 µM (inactive) | 23 µM (inactive) | > 100 µM (inactive) | > 100 µM (inactive) | 83.6 | > 100 µM (inactive) | > 100 µM (inactive) | > 100 µM (inactive) | 69.3 µM (inactive) | > 100 µM (inactive) |
| O=C(Cc1ccccc1)Oc1ccc2c(-c3ccccc3)c(C(=O)Nc3ccc(Cl)cc3)c(=O)oc2c1 | > 100 µM (inactive) | > 100 µM (inactive) | > 100 µM (inactive) | > 100 µM (inactive) | > 100 µM (inactive) | > 100 µM (inactive) | > 100 µM (inactive) |  | > 100 µM (inactive) | > 100 µM (inactive) | > 100 µM (inactive) | > 100 | > 100 µM (inactive) | > 100 µM (inactive) | > 100 µM (inactive) | > 100 µM (inactive) | > 100 µM (inactive) |
| O=C1CNNC(Cn2nc(-c3ccccc3)c3ccccc3c2=O)=N1 | > 100 µM (inactive) | > 100 µM (inactive) | > 100 µM (inactive) |  | > 100 µM (inactive) | > 100 µM (inactive) | > 100 µM (inactive) | > 100 µM (inactive) | 83 µM (inactive) | > 100 µM (inactive) | > 100 µM (inactive) | > 100 | > 100 µM (inactive) | > 100 µM (inactive) | > 100 µM (inactive) | > 100 µM (inactive) | > 100 µM (inactive) |
| O=C1c2ccccc2C2(O)Oc3cccc(O)c3C12O (configuration not stated) | > 100 µM (inactive) | > 100 µM (inactive) | > 100 µM (inactive) | > 100 µM (inactive) | > 100 µM (inactive) | > 100 µM (inactive) | > 100 µM (inactive) | > 100 µM (inactive) | > 100 µM (inactive) | > 100 µM (inactive) | > 100 µM (inactive) | > 100 | > 100 µM (inactive) | > 100 µM (inactive) | > 100 µM (inactive) | > 100 µM (inactive) | > 100 µM (inactive) |
| O=C(CSc1c2ccccc2nc2ccccc12)Nc1ccccc1-c1ccccc1NC(=O)CSc1c2ccccc2nc2ccccc12 | 13.3 µM (inactive) | 31.5 µM (inactive) | 30.1 µM (inactive) | 21.4 µM (inactive) | 21.5 µM (inactive) | 29.2 µM (inactive) | 26.8 µM (inactive) | 17.6 µM (inactive) | 42.2 µM (inactive) | 22 µM (inactive) | 23 µM (inactive) | 20.2 | 5.27 µM (inactive) | 80.4 µM (inactive) | 28 µM (inactive) | 11.1 µM (inactive) | 16.4 µM (inactive) |
| COC(=O)CC(=O)C[P+](c1ccccc1)(c1ccccc1)c1ccccc1 | 197 µM (inactive) | > 218 µM (inactive) | 168 µM (inactive) | > 218 µM (inactive) | > 218 µM (inactive) | 180 µM (inactive) | > 218 µM (inactive) | > 218 µM (inactive) |  | 114 µM (inactive) |  | 56.5 | 74 µM (inactive) | > 218 µM (inactive) | 95.3 µM (inactive) | 58.1 µM (inactive) | 69.7 µM (inactive) |
| COc1ccc2oc(C(=O)O)c3c2c1CCC3CCC(=O)O (configuration not stated) | > 100 µM (inactive) | > 100 µM (inactive) | > 100 µM (inactive) | > 100 µM (inactive) | > 100 µM (inactive) |  | > 100 µM (inactive) | > 100 µM (inactive) | > 100 µM (inactive) | > 100 µM (inactive) | > 100 µM (inactive) |  | > 100 µM (inactive) | > 100 µM (inactive) | > 100 µM (inactive) | > 100 µM (inactive) |  |
| COc1ccc2nc3cc(Cl)ccc3c(NCCC(=O)OCC(O)C(O)C(O[C@H](C)C(=O)NC(C)C(=O)NC(CCC(N)=O)C(=O)OCc3ccccc3)C(C=O)NC(C)=O)c2c1 (some centres not stated) | 17.4 µM (inactive) | 18.1 µM (inactive) | 18.3 µM (inactive) | 18.4 µM (inactive) | 19.1 µM (inactive) | 22.5 µM (inactive) | 17.9 µM (inactive) | 21.1 µM (inactive) | 16.1 µM (inactive) | 95.7 µM (inactive) | 21 µM (inactive) | 20.7 | 15.4 µM (inactive) | 18.8 µM (inactive) | 16.1 µM (inactive) | 4.03 µM (inactive) | 19.2 µM (inactive) |
| O=C(Nc1cc(Cl)c(Cl)cc1Cl)C(=O)C(C(=O)c1ccc2ccccc2c1)C1OC(=O)c2ccccc21 (configuration not stated) | 19.1 µM (inactive) | 16.7 µM (inactive) | 17 µM (inactive) | 15.4 µM (inactive) | 14.6 µM (inactive) | 2.65 µM (inactive) | > 10 µM (inactive) | 14.4 µM (inactive) |  | 14.4 µM (inactive) | 12 µM (inactive) | 17.3 |  | 60.4 µM (inactive) | 18.2 µM (inactive) | 4.66 µM (inactive) | 16.3 µM (inactive) |
| Fc1cccc(C2SCc3nc4ccccc4n32)c1F (configuration not stated) | 69 µM (inactive) | 48.5 µM (inactive) | 80.5 µM (inactive) | 36.6 µM (inactive) | 66.1 µM (inactive) | 41.6 µM (inactive) | 98.4 µM (inactive) | 7.52 µM (inactive) | > 100 µM (inactive) | 32.7 µM (inactive) | 42.2 µM (inactive) | 59.3 | 21.1 µM (inactive) | > 100 µM (inactive) | 89.7 µM (inactive) | 28.4 µM (inactive) | 29.1 µM (inactive) |
| CCOC(=O)C1Nc2ccccc2[C@H]2OCC[C@@H]12 (some centres not stated) | > 100 µM (inactive) | > 100 µM (inactive) | > 100 µM (inactive) | > 100 µM (inactive) | > 100 µM (inactive) | > 100 µM (inactive) | > 100 µM (inactive) | 0.0596 µM (active) | > 100 µM (inactive) | > 100 µM (inactive) | > 100 µM (inactive) | > 100 | > 100 µM (inactive) | > 100 µM (inactive) | > 100 µM (inactive) |  | > 100 µM (inactive) |
| COc1ccc(NC(=O)CC(=O)N/N=C/c2ccc(N(CCC#N)S(=O)(=O)c3ccccc3)cc2)cc1 | > 100 µM (inactive) | > 100 µM (inactive) | > 100 µM (inactive) | > 100 µM (inactive) | > 100 µM (inactive) | > 100 µM (inactive) | > 100 µM (inactive) | > 100 µM (inactive) | > 10 µM (inactive) | > 100 µM (inactive) |  | > 100 | > 100 µM (inactive) | > 100 µM (inactive) |  | > 100 µM (inactive) | > 100 µM (inactive) |
| CSc1nc2c(nc(N)n2C2OCC(O)C(O)C2O)c(=O)n1C (configuration not stated) | > 100 µM (inactive) | > 100 µM (inactive) | > 100 µM (inactive) | > 100 µM (inactive) | > 100 µM (inactive) | > 100 µM (inactive) | > 100 µM (inactive) |  | > 100 µM (inactive) | > 100 µM (inactive) | > 100 µM (inactive) |  | > 100 µM (inactive) | > 100 µM (inactive) | > 100 µM (inactive) | > 100 µM (inactive) | > 100 µM (inactive) |
